Experimental data published in patent US9144613B2, “Halogenated phenols for diagnostics, antioxidant protection and drug delivery” (priority 2012, dated 2015).

What was measured:
spontaneous tumors = conditions: 10 mg by gavage; X-ray imaging about two hours after; mice showing spontaneous tumors; control images of same mice prior to treatment did not show foci
Description: As described above, oxidative foci or tumors may be identified by X-ray radiographic imaging of animals following administration of an indigogenic compound of the present invention. The radio-opaque indigo-like product formed and deposited with residence time in FROS-containing tumor tissues may then be detected.
In this example, female C3H/HeN mice were obtained as multiparous retired breeders (i.e., after 3 to 4 litters) that were positive for a mammary tumor virus. See, e.g., Sellitti, D. F., Tseng, Y-C., and Latham, K. R., “Effect of 3,5,3′-Triiodo-L-thyronine on the Incidence and Growth Kinetics of Spontaneous Mammary Tumors in C3H/HeN Mice,” Cancer Research, 41: 5015-19 (1981), the entire contents and disclosure of which are incorporated herein by reference. Mice showing spontaneous tumors were given 10 mg of 5-Iodo-Indoxyl-3′,5′-Diiodo-4′-hydroxy ether substrate (product of Example 4) by gavage. These mice were then subjected to X-ray imaging of the tumors about two hours after being fed the iodo-indigogenic compound. […] When developed, the X-ray film appears dark in areas where more transmission occurs and light in areas where less transmission occurs.

[1] = tested on: sites of the wound or injury; conditions: mice with small injuries or wounds (cuts, scratches); data not shown
[2] = Spontaneous dehalogenation and ether cleavage in buffered aqueous solution exposed to sunlight; assay type: physicochemical; conditions: about 1 mM in carbonate buffer (pH 8.0), exposed to sunlight for about one hour; clear yellow/orange solution formed
Description: In contrast to reductive deiodination, spontaneous dehalogenation (e.g., deiodination) of a halogentated phenol ring in the presence of an oxidizing agent(s) and/or free radical(s) with cleavage of a chemical linkage, such as an ether linkage, etc., between the phenol ring and a conjugated compound has not been described. According to the present invention, cleavage of the ether linkage between the aromatic rings of thyroid hormone may form visibly colored quinone and iodine-containing products in buffered aqueous solutions in vitro, and this ether cleavage reaction may be accelerated under basic pH conditions and with exposure to ionizing radiation or light. These conditions favor the increased formation of oxidizing agents and/or free radicals, which are believed to promote the reaction. […] A quinone and an iodotyrosine product are also formed by cleavage of the ether linkage during the reaction. According to embodiments of the present invention, a spontaneous reaction of dehalogenation and cleavage of a chemical bond is proposed for the targeted delivery and release of a drug compound at or to sites of inflammation or disease. This spontaneous reaction is further proposed as a basis for scavenging free radicals and/or oxidative agents (FROS) as well as for the creation of a detectable compound(s) that may be used for diagnostic purposes.

[3] = Cleavage of the C—C bond during the oxidative dehalogenation reaction; assay type: physicochemical
Description: It has also been discovered that other types of bonds or linkages may also be cleaved by oxidative or free radical-mediated dehalogenation of the phenol ring. For example, as described herein, it has now been observed that a carbonyl linkage, a nitrogen linkage, a sulfinyl linkage and possibly a C—C bond on the phenol ring may also be cleaved by the oxidative dehalogenation reaction. These bonds are also considered stable, and their cleavage in connection with the dehalogenation reaction is surprising as well. One caveat with the C—C bond or linkage is that depending on the particular starting compound structure and the substituents or groups attached to the halogenated phenol ring via the C—C bond, the C—C bond or linkage may or may not be generally cleaved during or following the dehalogenation reaction (see below). […] However, other compounds do become cleaved. It is important to note that whether a C—C bond of a particular starting compound is “cleavable,” or becomes cleaved, may not be all-or-nothing (i.e., the C—C bond may be considered non-cleavable even though a small or minute amount of cleavage may occur, and vice versa). Thus, the amount or percentage of cleavage may be partial with the alternatively cleaved or non-cleaved product being possibly undetected or minute. […]

Oc1c(I)cc(Oc2c[nH]c3ccc(I)cc23)cc1I [Example 4, 5-Iodo-Indolyl-3′,5′-Diiodo-4′-hydroxyl-p-Phenol Ether]
radio-opaque tumor regions or foci by X-ray (formation and deposit of indigo-like product in oxidative tumor tissues) (spontaneous tumors): radio-opaque tumor regions or foci | X-ray detection at sites of wound or injury [1]: strong detection was observed

N[C@@H](Cc1cc(I)c(Oc2cc(I)c(O)c(I)c2)c(I)c1)C(=O)O [thyroxine]
cleavage of ether linkage with release of iodide [2]: the ether linkage is broken spontaneously

N[C@@H](Cc1ccc(O)c(I)c1)C(=O)O [MIT, 3-iodo-4-hydroxy-L-phenylalanine]
cleavage of C—C bond with the dehalogenation reaction [3]: generally not to be cleaved
